Assay results reported in patent US5093134A, “Method of treating HIV infection using polyoxometallates” (Johnson Matthey Public Limited Company, priority 1989, dated 1992).
Several values for one entry are separate records, joined by “and”; a condition that tells them apart may be missing. Identical values can stand only once.

Columns and labels:
cells = details: in words; cited from earlier work
in vitro = details: human, mt-4 cells
Method: (§1) The compounds were tested in a screen by the MTT method (J. Virol. Methods […]: 309-321 [1988]). MT-4 cells (2.5×10^4 /well) were infected with HIV-1 (HTLV-IIIB) or HIV-2 (LAV-2 ROD) at a concentration of 100 CCID50 and incubated in the presence of various concentrations of the test compounds, which were added immediately after infection with the virus. After 5 days culture at 37° C. in a CO2 incubator, the number of viable cells was assessed by the MTT (tetrazolium) method. […] The potential therapeutic usefulness was assessed by calculating a Selectivity Index (SI) corresponding to the ratio of CD50 to ED50.

MT-4 cells = assay: in vitro
Method: as §1

HIV-1 (HTLV-IIIB) = assay: microbe, parasite or virus in culture; format: cell-based; details: for Selectivity Index (SI), ratio of CD50 to ED50 / ED50: HIV-1, MT-4 cells; for ED50: 100 CCID50, 5 days, MTT
Method: as §1

HIV-2 (LAV-2 ROD) = assay: MTT screen of HIV-2 infected MT-4 cells (antiviral activity); format: cell-based; details: for ED50: 100 CCID50, 5 days, MTT
Method: as §1

herpes virus = details: in words; cited from earlier work
reverse transcriptase = details: in words; cited from earlier work
HIV = details: in words; cited from earlier work

Molecule	Selectivity Index (SI), ratio of CD50 to ED50 (HIV-1 (HTLV-IIIB))	ED50 (HIV-1 (HTLV-IIIB)) [mg/L]	Selectivity Index (SI), ratio of CD50 to ED50 (HIV-2 (LAV-2 ROD))	ED50 (HIV-2 (LAV-2 ROD)) [mg/L]	also measured
Cc1cn([C@H]2C[C@H](N=[N+]=[N-])[C@@H](CO)O2)c(=O)[nH]c1=O [AZT, reference compound]	125 and > 125	–	–	–	toxicity to cells (cells): high toxicity to cells; CC50 at 120 h (in vitro): > 1 µM; toxicity (in words) (MT-4 cells): rather high toxicity; EC50 (HIV-1 (HTLV-IIIB); Human immunodeficiency virus 1, IIIB, MT4, 120 h, read-out: ED50): < 0.008 µM
((CH3)3 NH^+)5 [SiSn(CH3)W11 O39 ]yH2 O [Compound C]	40	0.57	19	3.48	–
(C5 H5 NH^+)6 [SiCo(C5 H5 N)W11 O39 ]yH2 O [Compound A]	> 502	1.99	> 415	2.41	CD50 (MT-4 cells; human, mt-4 cells, 120 h): > 1000.0 µg/mL
(C6 H11 NH3^+)6 [SiCo(C6 H11 NH2)W11 O39 ]yH2 O [Compound B]	99	0.98	26	3.01	–
K5 BW12 O40	–	–	–	–	activity against herpes virus (herpes virus): activity against herpes virus
K5 [BPt(OH2)W11 O39 ]yH2 O	198	1.66	49	6.21	–
K5 [PCu(OH2)W11 O39 ]yH2 O	> 82	3.04	> 68	< 2.0	–
K5 [PNi(OH2)W11 O39 ]14H2 O	< 1	> 250.0	< 1	> 250.0	–
K5 [SiGa(OH2)W11 O39 ]yH2 O	100	1.06	14	6.19	–
K6 [BGa(OH2)W11 O39 ]yH2 O	5151	0.12	298	1.62	–
K6 [BRh(OH2)W11 O39 ]14H2 O	97	5.88	18	31.58	–
K6 [SiCo(OH2)W11 O39 ]yH2 O	> 52	< 2.0	> 15	< 2.0	–
K6 [SiCu(OH2)W11 O39 ]yH2 O	> 84	< 2.0	> 125	< 2.0	–
K6 [SiNi(OH2)W11 O39 ]15H2 O	103	1.93	55	3.58	CD50 (MT-4 cells; human, mt-4 cells, 120 h): 198.43 µg/mL
K7 PW10 Ti2 O40	–	–	–	–	activity against herpes virus (herpes virus): activity against herpes virus
K7 [BCo(OH2)W11 O39 ]yH2 O	47	2.74	< 1	> 200.0	–
K7 [BCu(OH2)W11 O39 ]yH2 O	32	3.51	62	2.56	–
K13 [Ce(SiW11 O39)2 ]26H2 O	> 2561	0.39	> 6357	0.157	CD50 (MT-4 cells; human, mt-4 cells, 120 h): > 1000.0 µg/mL
NaSb9 W21 O86 [HPA-23, reference compound]	3	2.8	< 1	> 4	CD50 (MT-4 cells; HIV-1, MT-4 cells, 5 days, 37° C., MTT): 7.4 µg/mL; CD50 (MT-4 cells; HIV-2, MT-4 cells, 5 days, 37° C., MTT): 2.4 µg/mL; reverse transcriptase inhibition (reverse transcriptase): reverse transcriptase inhibitor
silicotungstate acid [H4 SiW12 O40]	–	–	–	–	activity against HIV (HIV): activity against HIV
